From US6664286B1, “Serotonergic 5ht2 agonists for treating glaucoma” (Alcon Manufacturing, Ltd., priority 1998, dated 2003)
Read-outs that look alike come from different tables or passages of the source.

Tests used:
[1] = molecular target: 5HT2 receptor (Rattus norvegicus, UniProt P14842); assay: cell-based
Experimental: Confluent cells are exposed for 24-30 hrs to 1.5 μCi [^3H]-myo-inositol (18.3 Ci/mmol) in 0.5 ml of serum-free medium. Cells are then rinsed once with DMEM/F-12 containing 10 mM LiCl prior to incubation with the test agent (or solvent as the control) in 1.0 ml of the same medium for 1 hr at 37° C., after which the medium is aspirated and 1 ml of cold 0.1 M formic acid added to stop the reaction. […] The eluate (4 ml) is collected, mixed with 15 ml scintillation fluid, and the total [^3H]-IPs determined by scintillation counting on a beta-counter.

[2] = system: lasered (hypertensive) eyes of conscious cynomolgus monkeys; assay: Acute IOP Response in Lasered (Hypertensive) Eyes of Conscious Cynomolgus Monkeys; type: in vivo, cynomolgus monkey; details: topical, one 30 μL aliquot, dose (R)-DOI 100 μg, α-methylserotonin 250 μg, 5-methoxy-α-methyltryptamine 300 μg, serotonin 250 μg
Experimental: Acute IOP Response in Lasered (Hypertensive) Eyes of Conscious Cynomolgus Monkeys
Intraocular pressure (IOP) was determined with an Alcon Pneumatonometer after light corneal anesthesia with 0.1% proparacaine. Eyes were washed with saline after each measurement. After a baseline IOP measurement, test compound was instilled in one 30 μL aliquot to the right eyes only of nine cynomolgus monkeys. Vehicle was instilled in the right eyes of six additional animals. Subsequent IOP measurements were taken at 1, 3, and 6 hours.

[3] = system: rabbit eye; details: cited from earlier work
[4] = system: glaucomatous monkeys; details: cited from earlier work
[5] = man, dosed systemically; cited from earlier work
[6] = system: human subjects; details: cited from earlier work
[7] = system: 5HT2 receptor subtypes; details: 5HT2 agonist, rank order of subtypes; cited from earlier work
[8] = rabbit, administered intracamerally

Chain of 5HT2 receptor (P14842 whole entry): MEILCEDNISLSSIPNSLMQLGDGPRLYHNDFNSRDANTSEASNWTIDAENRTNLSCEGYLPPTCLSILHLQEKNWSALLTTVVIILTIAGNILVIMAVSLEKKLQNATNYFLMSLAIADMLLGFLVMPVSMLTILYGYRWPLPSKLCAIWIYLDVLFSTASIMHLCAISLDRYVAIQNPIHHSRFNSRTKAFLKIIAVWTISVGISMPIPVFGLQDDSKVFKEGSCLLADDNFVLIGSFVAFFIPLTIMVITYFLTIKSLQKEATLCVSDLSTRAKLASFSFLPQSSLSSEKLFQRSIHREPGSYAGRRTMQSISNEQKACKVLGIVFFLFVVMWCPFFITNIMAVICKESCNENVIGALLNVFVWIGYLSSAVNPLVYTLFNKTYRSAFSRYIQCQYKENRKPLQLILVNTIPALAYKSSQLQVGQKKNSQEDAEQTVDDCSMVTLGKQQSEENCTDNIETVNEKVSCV

| Compound | Percent IOP Reduction ± SEM, 1 hour after dose [2] [%] | Percent IOP Reduction ± SEM, 3 hours after dose [2] [%] | Percent IOP Reduction ± SEM, 6 hours after dose [2] [%] | effect on IOP ([3]; rabbits, route not stated) | other results |
| --- | --- | --- | --- | --- | --- |
| COc1ccc2[nH]cc(CC(C)N)c2c1 (stereo not drawn) [5-Methoxy-α-methyltryptamine, 5-methoxy-α-methyltryptamine] | 21.6 ± 5.05 | 35.2 ± 6.12 | 33.4 ± 5.39 |  | Emax ([1]; A7R5, read-out: Efficacy (Emax, %)): 107% |
| NCCc1c[nH]c2ccc(C(N)=O)cc12 [5-carboxamidotryptamine] |  |  |  |  | effect on intraocular pressure (IOP) ([3]; rabbit, topically applied): raise intraocular pressure |
| COc1ccccc1N1CCN(CCCNc2c(C)c(=O)n(C)c(=O)n2C)CC1 [5-methylurapidil] |  |  |  |  | effect on IOP [4]: lowered IOP |
| CCCN(CCC)C1CCc2cccc(O)c2C1 (stereo not shown) [8-hydroxy DPAT] |  |  |  | lower IOP |  |
| COc1cc(C[C@@H](C)N)c(OC)cc1I [(R)-DOI, (R)4-iodo-2,5 dimethoxy-α-methyl-benzeneethanamine] | 11.0 ± 4.98 | 25.3 ± 2.97 | 34.4 ± 4.98 |  | EC50 [1]: 0.277 ± 0.035 µM |
| COc1cc(CC(C)N)c(OC)cc1I (stereo not shown) [DOI] |  |  |  |  | CNS side effects [5]: cause central nervous system (CNS) side effects |
| O=C(c1ccc(F)cc1)C1CCN(CCn2c(=O)[nH]c3ccccc3c2=O)CC1 [Ketanserin] |  |  |  | lowers IOP | effect on IOP ([6]; man, route not stated): lowers IOP |
| c1ccc2c(c1)OC[C@H](CNCCCOc1ccc3c(c1)OCO3)O2 [MKC-242] |  |  |  | lower IOP |  |
| CC[C@@H](CO)NC(=O)[C@@H]1C=C2c3cccc4c3c(cn4C)C[C@H]2N(C)C1 [Methysergide] |  |  |  | lowered IOP |  |
| COc1cccc(CCc2ccccc2OCC(CN(C)C)OC(=O)CCC(=O)O)c1 (stereo not shown) [Saprogrelate] |  |  |  |  | effect on IOP ([3]; rabbits, dosed topically or orally): lowers IOP; effect on IOP ([6]; man, dosed topically or orally): lowers IOP |
| NCCc1c[nH]c2ccc(O)cc12 [Serotonin, 5-hydroxytryptamine] | 13.3 ± 5.31 | 18.0 ± 5.12 | 2.0 ± 7.39 |  | blood-aqueous barrier [3, 8]: caused breakdown of the blood-aqueous barrier; effect on IOP [3, 8]: increase in IOP |
| CNCCC(Oc1ccc(C(F)(F)F)cc1)c1ccccc1 (stereo not shown) [fluoxetine] |  |  |  |  | effect on IOP ([6]; human subjects, oral administration): raises IOP |
| CC(N)Cc1c[nH]c2ccc(O)cc12 (stereo not drawn) [α-Methylserotonin, α-methyl-serotonin] | 14.2 ± 4.39 | 25.8 ± 5.16 | 30.8 ± 7.72 |  | receptor subtype selectivity [7]: 5HT2B>5HT2C>5HT2A |
